Earlier results as cited in EP2732812A1, “Pramipexole retard tablet formulation” (Aristo Pharma GmbH, priority 2012, dated 2014).
Where a name gives a salt, the structure may show the parent alone.

Löslichkeit In Puffer (buffer, pH-Wert von 2,0 bis 7,4): > 10 mg/mL
Löslichkeit In Wasser (in water): > 20 mg/mL
SMILES: CCCN[C@H]1CCc2nc(N)sc2C1 [Pramipexoldihydrochlorid Monohydrat]
